This assay can be described thus: DPPH radical scavenging antioxidant test. Conditions: 517 nm; for Inhibition (radical scavenging inhibition): 0.2 mL DPPH (0.75 mM), compound 3 μM in ethanol, 30 min incubation in the dark. Type of assay: biochemical. How it is done: The antioxidant properties of the 8-[(2-hydroxynaphthalen-1-yl)diazenyl]naphthalene-1,3-disulfonic acid were studied by adding 0.2 mL DPPH (0.75 mM)) to compound 8-[(2-hydroxynaphthalen-1-yl)diazenyl]naphthalene-1,3-disulfonic acid (III) (3 μM) in ethanol. After 30 min of incubation in the dark, the absorbance was read against a blank at 517 nm. Ascorbic acid (vitamin C) was used as standard antioxidants (positive control). A blank sample was prepared by 0.2 ml of DPPH in 3 ml ethanol. A negative control sample was run using ethanol instead of the sample. The radical scavenging inhibition was calculated using the following equation: […]
The antioxidant activity for the synthesized compound is listed in Table 1, using Vitamin C as a reference.

Take `O=C1O[C@H]([C@@H](O)CO)C(O)=C1O` [vit c, Ascorbic acid, reference compound]: the “Inhibition (radical scavenging inhibition)” value worked out at 74%.
Regarding `O=S(=O)(O)c1cc(S(=O)(=O)O)c2c(/N=N/c3c(O)ccc4ccccc34)cccc2c1` [Product III, 8-[(2-hydroxynaphthalen-1-yl)diazenyl]naphthalene-1,3-disulfonic acid], the “Inhibition (radical scavenging inhibition)” value worked out at 54%. In addition, the “antioxidant potential compared to vitamin C” value (DPPH in vitro test, vitamin C as positive control) is recorded as “high potential as an antioxidant compared to vitamin C”.

(Values after US20250136543A1, “8-[(2-HYDROXYNAPHTHALEN-1-YL)DIAZENYL]NAPHTHALENE-1,3-DISULFONIC ACID AS AN ANTIOXIDANT COMPOUND” (KING FAISAL UNIVERSITY, priority 2023, published 2025).)
